The values below come from patent US9499519B2, “Fused pyrimidine compounds and use thereof” (Medivation Technologies, Inc., priority 2012, dated 2016).

Structures are written as SMILES.

Holding throughout (format): biochemical
Test [1] addresses T1, IGF-1R (Homo sapiens, UniProt P08069).
T1 construct: purchased Millipore 14-802
Put plainly: In vitro IGF-1R enzymatic assay (ADP-Glo kinase assay). The note with it: activated IGF-1R, 1 μM, in duplicate; read-out: inhibition of binding. Here is the method: IC50 values of the compounds of the invention against IGF-1R and IR were measured in vitro using an ADP-Glo kinase assay Kit (Promega). […] Kinase reactions in both assays were conducted at 30° C. for 20 min with increasing concentrations of compounds of the invention.
Additional compounds of the invention were screened against activated IGF-1R.

Test [2] addresses Trk A (Homo sapiens, UniProt P04629). Put plainly: HotSpot kinase assay: Trk A. The note with it: 100 nM compound; for inhibition at 0.1 µM: read-out: % Enzyme Inhibition @ 100 nM Trk A. Here is the method: Kinase assays were performed using additional compounds against a panel of 3 kinases: Trk A; Trk B; and Trk C. Each compound was tested at a concentration of 0.1 μM in single duplicate mode against the 3 kinases. Compounds were prepared as 10 mM stock solutions in DMSO prior to use in the assay. […] IC50 values and curve fits were obtained using Prism (GraphPad Software). […]
The screening was performed using the “HotSpot” assay platform. The assay measures the conversion of a peptide substrate to ^33P-labelled phosphorylated product. Briefly, specific kinase/substrate pairs along with required cofactors were prepared in reaction buffer. Specifically, the substrate was prepared in reaction buffer (20 mM Hepes, pH 7.5; 10 mM MgCl2; 1 mM EGTA; 0.02% Brij35; 0.02 mg/mL BSA; 0.1 mM Na3VO4; 2 mM DTT; 1% DMSO), followed by delivery of any required cofactor to the resulting substrate solution. The corresponding kinase was delivered into the substrate solution and the reaction mixture was mixed gently. Compound was delivered into the reaction mixture, followed 15-20 minutes later by addition of a mixture of ATP (Sigma, St. Louis Mo.) and ^33P ATP (specific activity 0.01 μCi/μL final; Perkin Elmer, Waltham, Mass.) to a final concentration of 10 μM-30 μM to initiate the reaction. Reactions were carried out at room temperature for 120 minutes, followed by spotting of the reactions onto P81 ion exchange filter paper (Whatman #3698-915; Whatman Inc., Piscataway, N.J.). Unbound phosphate was removed by extensive washing of filters in 0.75% phosphoric acid. […] The percent of enzyme inhibition was calculated based on the percent of remaining kinase activity.

The target in test [3] is Trk B (Homo sapiens, UniProt Q16620). In words: HotSpot kinase assay: Trk B. As to conditions: 100 nM compound; for inhibition at 0.1 µM: read-out: % Enzyme Inhibition @ 100 nM Trk B. Here is the method: (§1) Each compound was tested at a concentration of 0.1 μM in single duplicate mode against the 3 kinases. Compounds were prepared as 10 mM stock solutions in DMSO prior to use in the assay. […] IC50 values and curve fits were obtained using Prism (GraphPad Software).
(§2) The screening was performed using the “HotSpot” assay platform. The assay measures the conversion of a peptide substrate to ^33P-labelled phosphorylated product. Briefly, specific kinase/substrate pairs along with required cofactors were prepared in reaction buffer. Specifically, the substrate was prepared in reaction buffer (20 mM Hepes, pH 7.5; 10 mM MgCl2; 1 mM EGTA; 0.02% Brij35; 0.02 mg/mL BSA; 0.1 mM Na3VO4; 2 mM DTT; 1% DMSO), followed by delivery of any required cofactor to the resulting substrate solution. The corresponding kinase was delivered into the substrate solution and the reaction mixture was mixed gently. Compound was delivered into the reaction mixture, followed 15-20 minutes later by addition of a mixture of ATP (Sigma, St. Louis Mo.) and ^33P ATP (specific activity 0.01 μCi/μL final; Perkin Elmer, Waltham, Mass.) to a final concentration of 10 μM-30 μM to initiate the reaction. […] The percent of enzyme inhibition was calculated based on the percent of remaining kinase activity.

The target of test [4] is Trk C (Homo sapiens, UniProt Q16288). Put plainly: HotSpot kinase assay: Trk C. The note with it: 100 nM compound, HotSpot; for inhibition at 0.1 µM: read-out: % Enzyme Inhibition @ 100 nM Trk C. Here is the method:
as §1, §2
Kinase assays were performed using additional compounds against a panel of 4 kinases: AXL; c-Met; c-Mer; and Trk C. Each compound was tested at a concentration of […] in single duplicate mode against the 4 kinases. Compounds were prepared as 10 mM stock solutions in DMSO prior to use in the assay. […] IC50 values and curve fits were obtained using Prism (GraphPad Software).

Test [5] addresses T2, IR (Homo sapiens, UniProt P06213).
T2 construct: purchased Millipore 14-803
In words: In vitro IR enzymatic assay (ADP-Glo kinase assay). The note with it: activated IR, in duplicate, read-out: inhibition of binding.

Trk B, sequence (Q16620 32-822): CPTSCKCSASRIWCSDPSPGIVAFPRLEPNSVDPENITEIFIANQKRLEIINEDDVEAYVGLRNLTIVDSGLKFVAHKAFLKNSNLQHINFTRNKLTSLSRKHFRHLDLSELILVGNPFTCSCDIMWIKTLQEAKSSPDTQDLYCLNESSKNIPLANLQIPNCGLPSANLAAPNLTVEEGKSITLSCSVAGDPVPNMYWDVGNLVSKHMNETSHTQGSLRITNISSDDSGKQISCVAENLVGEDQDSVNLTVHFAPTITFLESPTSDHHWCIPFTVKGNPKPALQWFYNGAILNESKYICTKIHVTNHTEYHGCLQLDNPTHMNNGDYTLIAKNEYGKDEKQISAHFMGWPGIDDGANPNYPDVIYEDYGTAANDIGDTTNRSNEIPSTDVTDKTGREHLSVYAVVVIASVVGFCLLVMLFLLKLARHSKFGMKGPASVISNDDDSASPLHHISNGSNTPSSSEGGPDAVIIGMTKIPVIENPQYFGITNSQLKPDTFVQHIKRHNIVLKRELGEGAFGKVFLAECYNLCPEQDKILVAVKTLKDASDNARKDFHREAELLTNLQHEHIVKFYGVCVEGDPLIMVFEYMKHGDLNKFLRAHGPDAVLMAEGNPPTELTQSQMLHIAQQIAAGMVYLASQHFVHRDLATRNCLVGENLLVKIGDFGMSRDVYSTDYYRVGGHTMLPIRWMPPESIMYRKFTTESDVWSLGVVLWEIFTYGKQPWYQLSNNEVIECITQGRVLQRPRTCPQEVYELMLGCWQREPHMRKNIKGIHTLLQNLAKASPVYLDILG
Trk C, sequence (Q16288 32-839): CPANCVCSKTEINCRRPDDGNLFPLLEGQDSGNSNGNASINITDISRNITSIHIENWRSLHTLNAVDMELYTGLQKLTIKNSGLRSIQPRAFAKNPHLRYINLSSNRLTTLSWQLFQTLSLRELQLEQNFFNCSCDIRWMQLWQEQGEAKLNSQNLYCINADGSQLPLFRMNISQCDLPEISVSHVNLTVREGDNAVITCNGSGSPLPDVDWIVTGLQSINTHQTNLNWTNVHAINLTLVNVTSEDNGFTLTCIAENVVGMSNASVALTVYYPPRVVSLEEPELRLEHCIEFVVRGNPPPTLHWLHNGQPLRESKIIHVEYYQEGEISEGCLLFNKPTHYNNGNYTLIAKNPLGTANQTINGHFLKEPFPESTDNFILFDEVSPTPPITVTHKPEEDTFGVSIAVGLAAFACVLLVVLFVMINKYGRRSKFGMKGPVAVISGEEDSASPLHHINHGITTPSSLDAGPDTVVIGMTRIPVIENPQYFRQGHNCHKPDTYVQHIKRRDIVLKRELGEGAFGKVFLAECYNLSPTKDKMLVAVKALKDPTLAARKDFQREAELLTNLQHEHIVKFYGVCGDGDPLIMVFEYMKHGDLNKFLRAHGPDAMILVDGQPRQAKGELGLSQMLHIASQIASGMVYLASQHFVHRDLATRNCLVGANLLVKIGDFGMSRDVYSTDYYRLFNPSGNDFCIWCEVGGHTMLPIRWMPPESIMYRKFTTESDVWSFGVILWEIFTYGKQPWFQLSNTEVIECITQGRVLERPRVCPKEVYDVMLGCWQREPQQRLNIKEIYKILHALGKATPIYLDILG
T1 sequence (P08069 31-1367): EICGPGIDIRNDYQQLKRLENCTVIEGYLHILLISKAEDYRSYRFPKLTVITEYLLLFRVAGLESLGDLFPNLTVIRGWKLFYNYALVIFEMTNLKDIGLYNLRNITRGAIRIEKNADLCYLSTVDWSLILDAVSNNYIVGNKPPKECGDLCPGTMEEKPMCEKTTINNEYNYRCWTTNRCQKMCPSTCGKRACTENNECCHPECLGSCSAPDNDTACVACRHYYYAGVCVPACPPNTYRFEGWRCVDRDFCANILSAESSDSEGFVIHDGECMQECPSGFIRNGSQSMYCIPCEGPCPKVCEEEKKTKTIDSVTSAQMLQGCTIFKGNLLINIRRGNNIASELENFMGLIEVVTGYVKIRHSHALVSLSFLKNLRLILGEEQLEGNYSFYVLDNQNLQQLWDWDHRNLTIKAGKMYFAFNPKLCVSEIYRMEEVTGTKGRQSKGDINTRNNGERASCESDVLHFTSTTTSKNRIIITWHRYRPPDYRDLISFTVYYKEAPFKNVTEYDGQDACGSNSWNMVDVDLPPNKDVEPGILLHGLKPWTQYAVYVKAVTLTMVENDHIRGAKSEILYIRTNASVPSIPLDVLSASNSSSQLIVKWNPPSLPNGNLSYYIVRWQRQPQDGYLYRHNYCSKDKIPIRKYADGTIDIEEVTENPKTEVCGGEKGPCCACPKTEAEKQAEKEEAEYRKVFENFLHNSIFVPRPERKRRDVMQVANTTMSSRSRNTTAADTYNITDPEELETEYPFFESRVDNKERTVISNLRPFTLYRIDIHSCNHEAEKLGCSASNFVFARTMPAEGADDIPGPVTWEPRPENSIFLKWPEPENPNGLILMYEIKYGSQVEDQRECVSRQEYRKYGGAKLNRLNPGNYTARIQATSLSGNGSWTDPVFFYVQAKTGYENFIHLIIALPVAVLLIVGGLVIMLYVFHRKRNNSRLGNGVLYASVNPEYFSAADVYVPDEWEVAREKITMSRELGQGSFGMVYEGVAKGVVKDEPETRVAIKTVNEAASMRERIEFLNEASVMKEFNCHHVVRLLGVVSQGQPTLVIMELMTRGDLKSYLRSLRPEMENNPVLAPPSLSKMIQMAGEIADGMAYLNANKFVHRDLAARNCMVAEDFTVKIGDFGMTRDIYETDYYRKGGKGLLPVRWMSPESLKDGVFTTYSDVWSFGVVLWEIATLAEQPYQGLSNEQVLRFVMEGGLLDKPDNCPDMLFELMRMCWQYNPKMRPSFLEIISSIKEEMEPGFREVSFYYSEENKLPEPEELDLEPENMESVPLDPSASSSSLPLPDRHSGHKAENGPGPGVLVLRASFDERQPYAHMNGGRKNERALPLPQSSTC
Trk A, sequence (P04629 33-796): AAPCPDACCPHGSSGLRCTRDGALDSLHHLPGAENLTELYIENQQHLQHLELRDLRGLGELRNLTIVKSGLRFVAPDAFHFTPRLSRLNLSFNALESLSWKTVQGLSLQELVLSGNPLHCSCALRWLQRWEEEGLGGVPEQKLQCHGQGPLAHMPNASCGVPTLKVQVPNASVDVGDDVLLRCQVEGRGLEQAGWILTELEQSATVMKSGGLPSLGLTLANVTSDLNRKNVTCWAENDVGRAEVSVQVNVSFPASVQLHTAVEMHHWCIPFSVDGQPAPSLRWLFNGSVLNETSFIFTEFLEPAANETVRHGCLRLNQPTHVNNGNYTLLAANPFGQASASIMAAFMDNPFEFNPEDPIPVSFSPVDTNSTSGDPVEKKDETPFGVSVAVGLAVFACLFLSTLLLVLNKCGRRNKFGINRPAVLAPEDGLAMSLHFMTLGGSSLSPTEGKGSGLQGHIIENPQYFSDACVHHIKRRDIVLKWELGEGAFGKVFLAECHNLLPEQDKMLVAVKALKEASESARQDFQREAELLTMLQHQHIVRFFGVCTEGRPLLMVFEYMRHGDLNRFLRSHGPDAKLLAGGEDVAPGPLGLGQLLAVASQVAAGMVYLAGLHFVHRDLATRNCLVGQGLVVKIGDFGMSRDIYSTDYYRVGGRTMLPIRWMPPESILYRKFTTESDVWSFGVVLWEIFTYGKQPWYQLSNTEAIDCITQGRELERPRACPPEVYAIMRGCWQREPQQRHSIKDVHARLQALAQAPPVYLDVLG
T2 sequence (P06213 28-1382): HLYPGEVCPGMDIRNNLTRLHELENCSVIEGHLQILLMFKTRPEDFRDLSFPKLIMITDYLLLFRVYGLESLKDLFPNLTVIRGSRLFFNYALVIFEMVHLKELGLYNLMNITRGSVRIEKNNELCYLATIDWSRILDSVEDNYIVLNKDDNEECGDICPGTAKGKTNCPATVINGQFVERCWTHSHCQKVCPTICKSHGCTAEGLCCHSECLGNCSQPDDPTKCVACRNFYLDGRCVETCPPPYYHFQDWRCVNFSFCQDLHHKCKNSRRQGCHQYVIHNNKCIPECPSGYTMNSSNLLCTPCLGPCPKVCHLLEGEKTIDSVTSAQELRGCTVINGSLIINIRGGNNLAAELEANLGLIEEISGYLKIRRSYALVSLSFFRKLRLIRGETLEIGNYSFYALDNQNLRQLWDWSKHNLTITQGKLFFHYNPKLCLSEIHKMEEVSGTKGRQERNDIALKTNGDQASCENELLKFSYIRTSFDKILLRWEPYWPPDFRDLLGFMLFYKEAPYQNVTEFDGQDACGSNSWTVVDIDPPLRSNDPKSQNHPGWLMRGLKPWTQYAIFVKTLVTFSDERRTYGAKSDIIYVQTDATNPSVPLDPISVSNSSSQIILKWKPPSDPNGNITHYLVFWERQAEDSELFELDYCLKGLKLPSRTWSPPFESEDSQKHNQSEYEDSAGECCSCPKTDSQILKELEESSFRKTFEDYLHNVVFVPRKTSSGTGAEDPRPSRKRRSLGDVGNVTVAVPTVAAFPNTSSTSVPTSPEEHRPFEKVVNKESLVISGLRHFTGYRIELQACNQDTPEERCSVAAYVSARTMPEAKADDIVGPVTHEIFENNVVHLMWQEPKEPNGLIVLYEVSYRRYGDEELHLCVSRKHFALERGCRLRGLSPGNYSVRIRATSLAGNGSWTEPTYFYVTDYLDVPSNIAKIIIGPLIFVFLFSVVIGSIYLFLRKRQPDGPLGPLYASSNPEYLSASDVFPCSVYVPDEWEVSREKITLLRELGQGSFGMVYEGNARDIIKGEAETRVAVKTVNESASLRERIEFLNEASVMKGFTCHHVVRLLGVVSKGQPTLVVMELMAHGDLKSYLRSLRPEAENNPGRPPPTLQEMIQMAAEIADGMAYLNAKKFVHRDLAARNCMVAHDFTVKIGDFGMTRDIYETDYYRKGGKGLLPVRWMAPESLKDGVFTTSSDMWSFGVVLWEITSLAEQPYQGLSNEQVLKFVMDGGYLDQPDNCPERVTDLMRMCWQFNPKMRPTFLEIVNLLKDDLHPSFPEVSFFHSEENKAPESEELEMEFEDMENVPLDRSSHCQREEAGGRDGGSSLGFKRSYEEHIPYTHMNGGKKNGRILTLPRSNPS

As to `CC(C)c1cc(Nc2nc(N3CC(O)CC3C(=O)N3CCCCC3)nc3c2CCC3)n[nH]1` (stereo not shown) [Compound 107a, (4-hydroxy-1-(4-(5-isopropyl-1H-pyrazol-3-ylamino)-6,7-dihydro-5H-cyclopenta[d]pyrimidin-2-yl)pyrrolidin-2-yl)(piperidin-1-yl)methanone], the inhibition at 1 µM in test [1] is < 35%; in test [5], ≤ 40%. Further, the “% Enzyme Inhibition @ 100 nM Trk A” value in test [2] is “+ (Low (39% or lower inhibition, +))”. Also, in test [3], the “% Enzyme Inhibition @ 100 nM Trk B” value was “++ (Medium (40 to 59% inhibition, ++))”. In addition, the “% Enzyme Inhibition @ 100 nM Trk C” value in test [4] is “+++ (High (60% or higher inhibition, +++))”.
Consider `CC(C)c1cc(Nc2nc(N3CC(O)CC3C(=O)N3CCCCC3)nc3c2CCC3)n[nH]1` (stereo not shown) [Compound 107b, (4-hydroxy-1-(4-(5-isopropyl-1H-pyrazol-3-ylamino)-6,7-dihydro-5H-cyclopenta[d]pyrimidin-2-yl)pyrrolidin-2-yl)(piperidin-1-yl)methanone], for which the inhibition at 0.1 µM in test [2] and in test [3] was < 39% in each case. The “% Enzyme Inhibition @ 100 nM Trk C” value in test [4] is “+ (Low (39% or lower inhibition, +))”.
In the case of `O=C(C1CC(O)CN1c1nc2c(c(Nc3cc(C4CCCC4)[nH]n3)n1)CCC2)N1CCCCC1` (stereo not shown) [Compound 108a, (1-(4-(5-cyclopentyl-1H-pyrazol-3-ylamino)-6,7-dihydro-5H-cyclopenta[d]pyrimidin-2-yl)-4-hydroxypyrrolidin-2-yl)(piperidin-1-yl)methanone], the figures for the inhibition at 1 µM in test [1] and in test [5] were < 35% and ≤ 40%, respectively. Moreover, the “% Enzyme Inhibition @ 100 nM Trk A” value in test [2] was “+ (Low (39% or lower inhibition, +))”. Further, the “% Enzyme Inhibition @ 100 nM Trk B” value in test [3] was “+++ (High (60% or higher inhibition, +++))”. In addition, the “% Enzyme Inhibition @ 100 nM Trk C” value in test [4] was “+++ (High (60% or higher inhibition, +++))”.
With `O=C(C1CC(O)CN1c1nc2c(c(Nc3cc(C4CCCC4)[nH]n3)n1)CCC2)N1CCCCC1` (stereo not shown) [Compound 108b, (1-(4-(5-cyclopentyl-1H-pyrazol-3-ylamino)-6,7-dihydro-5H-cyclopenta[d]pyrimidin-2-yl)-4-hydroxypyrrolidin-2-yl)(piperidin-1-yl)methanone], the inhibition at 0.1 µM is 40 to 59% in test [2], 40 to 59% in test [3] and > 60% in test [4].
`CC(C)c1cc(Nc2nc(N3CC(O)CC3C(=O)N(C)C)nc3c2CCC3)n[nH]1` (stereo not shown) [Compound 109a, 4-hydroxy-1-(4-(5-isopropyl-1H-pyrazol-3-ylamino)-6,7-dihydro-5H-cyclopenta[d]pyrimidin-2-yl)-N,N-dimethylpyrrolidine-2-carboxamide]: the results for the inhibition at 1 µM in test [1] and in test [5] were < 35% and ≤ 40%, respectively. Also, the inhibition at 0.1 µM in test [2], in test [3] and in test [4] was < 39% each time.
Turning to `CN(C)C(=O)C1CC(O)CN1c1nc2c(c(Nc3cc(C4CCCC4)[nH]n3)n1)CCC2` (stereo not shown) [Compound 110a, 1-(4-(5-cyclopentyl-1H-pyrazol-3-ylamino)-6,7-dihydro-5H-cyclopenta[d]pyrimidin-2-yl)-4-hydroxy-N,N-dimethylpyrrolidine-2-carboxamide], the figures for the inhibition at 1 µM in test [1] and in test [5] were < 35% and ≤ 40%, respectively. Moreover, the “% Enzyme Inhibition @ 100 nM Trk A” value in test [2] is “+ (Low (39% or lower inhibition, +))”. Moreover, in test [3], the “% Enzyme Inhibition @ 100 nM Trk B” value was “++ (Medium (40 to 59% inhibition, ++))”. In addition, the “% Enzyme Inhibition @ 100 nM Trk C” value in test [4] is on record as “+++ (High (60% or higher inhibition, +++))”.
As for `CN(C)C(=O)C1CC(O)CN1c1nc2c(c(Nc3cc(C4CCCC4)[nH]n3)n1)CCC2` (stereo not shown) [Compound 110b, 1-(4-(5-cyclopentyl-1H-pyrazol-3-ylamino)-6,7-dihydro-5H-cyclopenta[d]pyrimidin-2-yl)-4-hydroxy-N,N-dimethylpyrrolidine-2-carboxamide], the values for the inhibition at 0.1 µM in test [2], in test [3] and in test [4] were < 39%, < 39% and 40 to 59%, respectively.
For `O=C(C1CCCN1c1nc2c(c(Nc3cc(C4CCCC4)[nH]n3)n1)CCC2)N1CCCCC1` (stereo not shown) [Compound 111a, (1-(4-(5-cyclopentyl-1H-pyrazol-3-ylamino)-6,7-dihydro-5H-cyclopenta[d]pyrimidin-2-yl)pyrrolidin-2-yl)(piperidin-1-yl)methanone], the inhibition at 1 µM in test [1] is < 35%; in test [5], ≤ 40%. The inhibition at 0.1 µM in test [2] was 40 to 59%; in test [3], > 60%; in test [4], > 60%.
Turning to `O=C(C1CCCN1c1nc2c(c(Nc3cc(C4CCCC4)[nH]n3)n1)CCC2)N1CCCC1` (stereo not shown) [Compound 112a, (1-(4-(5-cyclopentyl-1H-pyrazol-3-ylamino)-6,7-dihydro-5H-cyclopenta[d]pyrimidin-2-yl)pyrrolidin-2-yl)(pyrrolidin-1-yl)methanone], the inhibition at 1 µM in test [1] is < 35%; in test [5] it was ≤ 40%. The inhibition at 0.1 µM in test [2], in test [3] and in test [4] was > 60% throughout.
With `O=C(C1CCCN1c1nc2c(c(Nc3cc(C4CCCCC4)[nH]n3)n1)CCC2)N1CCCCC1` (stereo not shown) [Compound 113a, (1-(4-(5-cyclohexyl-1H-pyrazol-3-ylamino)-6,7-dihydro-5H-cyclopenta[d]pyrimidin-2-yl)pyrrolidin-2-yl)(piperidin-1-yl)methanone], the inhibition at 1 µM in test [1] is < 35%; in test [5] it was ≤ 40%. Further, the “% Enzyme Inhibition @ 100 nM Trk A” value in test [2] was “++ (Medium (40 to 59% inhibition, ++))”. For the same compound, the “% Enzyme Inhibition @ 100 nM Trk B” value in test [3] is “+ (Low (39% or lower inhibition, +))”. Further, the “% Enzyme Inhibition @ 100 nM Trk C” value in test [4] is on record as “++ (Medium (40 to 59% inhibition, ++))”.
As for `O=C(C1CCCN1c1nc2c(c(Nc3cc(C4CCCCC4)[nH]n3)n1)CCC2)N1CCCCC1` (stereo not shown) [Compound 113b, (1-(4-(5-cyclohexyl-1H-pyrazol-3-ylamino)-6,7-dihydro-5H-cyclopenta[d]pyrimidin-2-yl)pyrrolidin-2-yl)(piperidin-1-yl)methanone], the inhibition at 0.1 µM was 40 to 59% in test [2] and > 60% in test [4]. In addition, the “% Enzyme Inhibition @ 100 nM Trk B” value in test [3] is reported as “+++ (High (60% or higher inhibition, +++))”.
Take `CN(C)C(=O)C1CCCN1c1nc2c(c(Nc3cc(C4CCCCC4)[nH]n3)n1)CCC2` (stereo not shown) [Compound 114a, 1-(4-(5-cyclohexyl-1H-pyrazol-3-ylamino)-6,7-dihydro-5H-cyclopenta[d]pyrimidin-2-yl)-N,N-dimethylpyrrolidine-2-carboxamide]: the inhibition at 1 µM in test [1] is < 35%; in test [5], ≤ 40%. The “% Enzyme Inhibition @ 100 nM Trk A” value in test [2] is “++ (Medium (40 to 59% inhibition, ++))”. Moreover, in test [3], the “% Enzyme Inhibition @ 100 nM Trk B” value was “++ (Medium (40 to 59% inhibition, ++))”. The “% Enzyme Inhibition @ 100 nM Trk C” value in test [4] is given as “++ (Medium (40 to 59% inhibition, ++))”.
In the case of `CN(C)C(=O)C1CCCN1c1nc2c(c(Nc3cc(C4CCCCC4)[nH]n3)n1)CCC2` (stereo not shown) [Compound 114b, 1-(4-(5-cyclohexyl-1H-pyrazol-3-ylamino)-6,7-dihydro-5H-cyclopenta[d]pyrimidin-2-yl)-N,N-dimethylpyrrolidine-2-carboxamide], the inhibition at 0.1 µM in test [2] is < 39%; in test [3], > 60%; in test [4] it was > 60%.
